Where a name gives a salt, the structure may show the parent alone.
What follows are compounds tested against serotonin transporter (Rattus norvegicus, UniProt P31652) (assay: Serotonin transporter/uptake assay: synaptosomal uptake of 3H-5-hydroxytryptamine). Conditions: not given.
serotonin transporter, sequence (P31652 whole entry): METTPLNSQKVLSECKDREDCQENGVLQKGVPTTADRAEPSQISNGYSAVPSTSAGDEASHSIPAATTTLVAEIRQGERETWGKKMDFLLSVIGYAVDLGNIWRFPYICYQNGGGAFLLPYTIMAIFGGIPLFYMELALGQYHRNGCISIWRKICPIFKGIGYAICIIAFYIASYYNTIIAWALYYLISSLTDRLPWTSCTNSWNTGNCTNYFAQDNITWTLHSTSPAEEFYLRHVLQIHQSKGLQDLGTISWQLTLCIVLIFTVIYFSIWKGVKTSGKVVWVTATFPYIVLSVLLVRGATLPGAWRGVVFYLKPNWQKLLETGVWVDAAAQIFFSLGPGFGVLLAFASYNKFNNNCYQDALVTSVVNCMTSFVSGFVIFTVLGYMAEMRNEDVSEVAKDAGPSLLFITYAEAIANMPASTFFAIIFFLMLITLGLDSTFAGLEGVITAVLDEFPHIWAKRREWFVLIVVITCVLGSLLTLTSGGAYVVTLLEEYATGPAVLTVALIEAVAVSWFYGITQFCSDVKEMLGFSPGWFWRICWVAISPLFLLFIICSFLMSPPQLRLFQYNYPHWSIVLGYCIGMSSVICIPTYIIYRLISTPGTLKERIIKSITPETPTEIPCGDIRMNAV
Assay type: biochemical
Experimental: In this example the biological activity of the compounds of the invention are determined using a serotonin transporter/uptake assay. Serotonin transporters/uptake sites on nerve terminals presumably function to terminate neuronal signaling by removing serotonin from the synaptic cleft. The activity of the serotonin transporter integral protein can be measured in vitro by synaptosomal uptake of ^3H-5-hydroxytryptamine.
Preparations are performed at 0-4° C. Cerebral cortices from male Wistar rats (150-200 g) are homogenized for 5-10 seconds in 100 volumes of ice-cold 0.32 M sucrose containing 1 mM pargyline, and using a motor driven teflon pestle in a glass homogenizing vessel.
Monoamine oxidase activity becomes inhibited by pargyline.
The homogenate is centrifuged at 1000×g for 10 minutes. The resulting supernatant is subjected to centrifugation at 27,000×g for 50 minutes, and the supernatant is discarded. The pellet (P2) is re-suspended in oxygenated (equilibrated with an atmosphere of 96% O2: 4% CO2 for at least 30 minutes) Krebs-Ringer incubation buffer (1000 ml per g of original tissue) at pH 7.2, containing 122 mM NaCl, 0.16 mM EDTA, 4.8 mM KCl, 12.7 mM Na2HPO4, 3.0 mM NaH2PO4, 1.2 mM MgSO4, 1 mM CaCl2, 10 mM glucose and 1 mM ascorbic acid.
Aliquots of 4.0 ml tissue suspension are added to 100 μl of test solution and 100 μl of ^3H-5-HT (1 nM, final concentration), mixed and incubated for 30 minutes at 37° C. Non-specific uptake is determined using Citalopram (1 μM, final concentration; Available from H. Lundbeck, Denmark), a serotonin reuptake inhibitor.
After incubation the samples are poured directly onto Whatman GF/C glass fibre filters under suction. The filters are washed three times with 5 ml of ice-cold 0.9% (w/v) NaCl solution.
The amount of radioactivity on the filters is determined by conventional liquid scintillation counting. Specific uptake is calculated as the difference between total uptake and non-specific uptake.
25-75% inhibition of specific binding must be obtained, before calculation of an IC50.
The test value is presented as IC50 (the concentration (μM) of the test substance which inhibits the specific binding of ^3H-5-HT by 50%), calculated according to the following equation: […]
where Co is specific binding in control assays and Cx is the specific binding in the test assay (the calculations assume normal mass-action kinetics).
`c1ccc2nc(N3C[C@@H]4C[C@H]3CN4)ccc2c1` [Compound 1, 2-(2-Quinolinyl)-(1S,4S)-2,5-diazabicyclo-[2.2.1]-heptane fumaric acid salt] gave an IC50 of 88 nM. With `O=[N+]([O-])c1ccc2nc(N3C[C@@H]4C[C@H]3CN4)ccc2c1` [Compound 3, 2-(6-Nitro-2-quinolinyl)-(1S,4S)-2,5-diazabicyclo-[2.2.1]-heptane fumaric acid salt] the IC50 was 0.24 nM. `CN1C[C@@H]2C[C@H]1CN2c1ccc2cc([N+](=O)[O-])ccc2n1` [Compound 4, 2-(6-Nitro-2-quinolinyl)-5-methyl-(1S,4S)-2,5-diazabicyclo-[2.2.1]-heptane fumaric acid salt] was tested, and the IC50 was 3.4 nM.

Same assay, conditions: synaptosomes from cerebral cortices of male Wistar rats; 3H-5-HT 1 nM; 30 minutes at 37° C.; read-out: Serotonin uptake IC50
With `CN1C[C@@H]2C[C@H]1CN2c1ccc2ccccc2n1` [Compound 2, 2-(2-Quinolinyl)-5-methyl-(1S,4S)-2,5-diazabicyclo-[2.2.1]-heptane] the IC50 was 130 nM. With `CN1C[C@@H]2C[C@H]1CN2c1ccc2cc(N)ccc2n1` [Compound 5, 2-(6-Amino-2-quinolinyl)-5-methyl-(1S,4S)-2,5-diazabicyclo-[2.2.1]-heptane fumaric acid salt] the IC50 was 840 nM. `c1ccc2sc(N3C[C@@H]4C[C@H]3CN4)nc2c1` [Compound 7, 2-(2-Benzothiazolyl)-(1S,4S)-2,5-diazabicyclo-[2.2.1]-heptane fumaric acid salt] showed an IC50 of 350 nM.
